As usually defined, the Tmax is the time from dosing to the highest level. In general, Cmax refers to the maximum level reached in the sampled fluid or tissue. Usually bioavailability stands for the share of a dose that reaches the circulation, judged against a reference dose that is usually intravenous. Usually EC50 stands for the midpoint of the concentration-response curve.

Read-outs that look alike come from different tables or passages of the source.

The nature of data set [1]: Pharmacokinetic (PK) studies, in vivo monkey oral PK. To be noted: Cynomolgus monkey; for Tmax / AUC(0-t) / Cmax / bioavailability: plasma; for AUC(0-t): read-out: AUC0-24 (Arbitrary units); for Cmax: read-out: Cmax (Arbitrary unit); for bioavailability: read-out: F % (oral bioavailability). More on the design: species or system Cynomolgus monkeys. The protocol: Pharmacokinetic (PK) Studies Test Articles:
Examples 60, 115, 117, and 119 were tested along with comparative examples CE-1 and CE-2.
Dose Formulation Preparation
Compounds CE-2, Example 60, Example 115, Example 117, and Example 119 were combined with a mixture of 10% NMP (v:v) and 90% PEG300 (v:v), and the mixture was stirred until a homogeneous solution was obtained.
Compound CE-1 was combined with a mixture of 15% 2-hydroxypropyl-β-cyclodextrin (w:v) and 85% Milli-Q water (v:v), and the mixture was stirred until a homogeneous solution was obtained.
Young adult non-naive Cynomolgus monkeys with weight about 2.5-5 kg (n=1-3/test article/route) were fasted overnight and then dosed with either CE-1, CE2, Example 60, Example 115, Example 117 or Example 119. Food was supplied approximately 4 hours post dose and animals were provided with free access to water all the time. Animals were restrained at designated time points for blood sampling. Approximately 500 μL of blood samples was taken via cephalic or saphenous vein into EDTA-K2 tubes. For oral administration (PO): blood samples were generally collected pre-dose, and at 15 min, 30 min, 1 hr., 2 hr., 4 hr., 8 hr., 12 hr., and 24 hr. time points after dosing. Blood was be maintained on wet ice, in chilled cryoracks, or at approximately 5° C. prior to centrifugation to obtain plasma. Centrifugation was conducted within 1 hour of collection. Plasma (approximately 200 μL) was placed into a micronic tubes containing 4 μL of formic acid (the final concentration of formic acid in plasma was approximately 2%) and samples were vortex mixed. Samples were maintained on dry ice prior to storage at approximately −70° C.
LC-MS/MS assays were utilized to quantify the concentration of the test articles in plasma as follows.
50 μL plasma sample was mixed with 350 μL of ACN combined with an internal standard. The mixture was then vortexed for about 1-5 min, and centrifuged at about 4,000-5,800 rpm for about […]. An aliquot of 1 μL supernatant was used for LC-MS/MS analysis.
MS conditions: A Sciex API 6500 equipped with electrospray ionization in the positive ion selected reaction monitoring mode was used for detection.
HPLC conditions • Mobile Phase A: H2O-0.11% Formic Acid • Mobile Phase B: ACN-0.1% Formic Acid
• Column: Phenomenex Kinetex XBCl8 (2.1×50 mm, 2.6 μm) with a flow rate of 1.20 mL/min • Column temperature: 60° C. • Retention time: approximately between 0.85 to 1.05 • min Pharmacokinetics (PK) Parameters
Pharmacokinetics parameters, including area under the curve (AUC0-24), maximum plasma concentration (Cmax), time to reach maximum plasma concentration (Tmax), oral bioavailability (F %), etc., were calculated using Dotmatics software in non-compartmental model.

Data set [2] addresses GLP-1R (Homo sapiens, UniProt P43220). Put plainly: GLP-1R Activation - cAMP Assay. The format is cell-based. To be noted: cAMP increase in CHO cells stably expressing GLP-1R; each compound run on one of the two cAMP assays (Assay 1 or Assay 2, not specified). In a few lines:
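cAMP rise read by HTRF after 30 min agonist exposure (10-point titration, 37 °C) in HBSS/20 mM Hepes/0.1% BSA, following 1 h pre-incubation. Cells: stable GLP-1R CHO line, 1,000/well, seeded overnight. Sigmoidal fit of response vs log concentration gives EC50.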
In general terms: Changes in cAMP serve as a functional read-out for many G protein-coupled receptors.

Chain of GLP-1R (P43220 24-463): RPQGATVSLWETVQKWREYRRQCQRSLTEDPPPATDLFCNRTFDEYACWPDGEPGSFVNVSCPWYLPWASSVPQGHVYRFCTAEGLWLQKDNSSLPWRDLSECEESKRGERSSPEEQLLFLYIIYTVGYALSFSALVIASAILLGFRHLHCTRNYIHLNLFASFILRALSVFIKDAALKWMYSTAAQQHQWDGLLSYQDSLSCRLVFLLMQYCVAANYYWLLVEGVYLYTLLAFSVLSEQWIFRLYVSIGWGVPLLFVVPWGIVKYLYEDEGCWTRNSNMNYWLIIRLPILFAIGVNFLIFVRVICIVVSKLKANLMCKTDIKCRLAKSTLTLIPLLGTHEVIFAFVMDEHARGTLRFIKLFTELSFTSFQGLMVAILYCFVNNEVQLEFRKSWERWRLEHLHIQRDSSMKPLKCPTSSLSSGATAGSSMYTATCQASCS

In the case of `CC1(C)COC[C@H]1n1c(Cc2cc(F)c(-c3cccc(OCc4ccc(Cl)cc4F)n3)cc2F)nc2ccc(C(=O)O)cc21` [Example 115], in data set [1] (single oral dose 2 mg/kg), the time of peak concentration (Tmax) amounted to 2.7 ± 1.2 h, the AUC(0-t) came out at 17.9 ± 2.04 µM·h, the Cmax amounted to 1540 ± 166 nM and the bioavailability was 42 ± 16.5%. For the same compound, a half-maximal response in data set [2] (EC50) required 0.122 nM.

Consider `N#Cc1ccc(COc2cccc(C3CCN(Cc4nc5ccc(C(=O)O)cc5n4C[C@@H]4CCO4)CC3)n2)c(F)c1` [CE-1, (S)-2-((4-(6-((4-cyano-2-fluorobenzyl)oxy)pyridin-2-yl)piperidin-1-yl)methyl)-1-(oxetan-2-ylmethyl)-1H-benzo[d]imidazole-6-carboxylic acid, reference compound], for which the plasma concentrations in data set [1] (over a period of 12 h after a single oral dose of 1 mg/kg) is given as less than 10 nM. Moreover, in data set [1] (single oral dose 1 mg/kg), the time to peak (Tmax) was found to be 2.2 ± 1.8 h, the AUC(0-t) turned out to be 0.0477 ± 0.0133 µM·h, the maximum concentration (Cmax) was 4.5 ± 0.8 nM and the bioavailability stood at 2.5%. The “plasma exposure after the 12 h period” value in data set [1] (single oral dose of 1 mg/kg, after 12 h) is reported as “below the detection limit”.

Turning to `N#Cc1ccc(COc2cccc(-c3cc(F)c(Cc4nc5ccc(C(=O)O)cc5n4C[C@@H]4CCO4)cc3F)n2)c(F)c1` [CE-2, (S)-2-(4-(6-((4-cyano-2-fluorobenzyl)oxy)pyridin-2-yl)-2,5-difluorobenzyl)-1-(oxetan-2-ylmethyl)-1H-benzo[d]imidazole-6-carboxylic acid, reference compound], in data set [1] (single oral dose 2 mg/kg), the duration of exposure entry was “sustained exposures over 24 h”, the time of peak concentration (Tmax) was found to be 4 ± 2 h, the AUC(0-t) stood at 2.81 ± 1.33 µM·h and the Cmax was 224 ± 130 nM. In addition, the bioavailability in data set [1] (single oral dose 2 mg/kg) came to 27.4%.

As to `CC1(C)COC[C@H]1n1c(Cc2cc(F)c(-c3cccc(OCc4ccc(C#N)cc4F)n3)cc2F)nc2ccc(C(=O)O)cc21` [Example 60], in data set [1] (single oral dose 2 mg/kg), the time to peak (Tmax) amounted to 1.5 ± 0.9 h, the AUC(0-t) turned out to be 5.57 ± 2.19 µM·h, the maximum concentration (Cmax) was determined as 385 ± 82 nM and the bioavailability was determined as 47.6 ± 12.3%. In data set [2], the 50% effective concentration (EC50) was found to be 0.04 nM.

Consider `CC1(C)COC[C@H]1n1c(Cc2cc(F)c(-c3ccnc(OCc4ccc(Cl)cc4F)n3)cc2F)nc2c(F)cc(C(=O)O)cc21` [Example 117, (S)-2-(4-(2-((4-chloro-2-fluorobenzyl)oxy)pyrimidin-4-yl)-2,5-difluorobenzyl)-1-(4,4-dimethyltetrahydrofuran-3-yl)-4-fluoro-1H-benzo[d]imidazole-6-carboxylic Acid], for which, in data set [1] (single oral dose 2 mg/kg), the time to peak (Tmax) turned out to be 4.7 ± 2.3 h, the AUC(0-t) turned out to be 12.8 ± 4.01 µM·h, the Cmax is 1600 ± 832 nM and the bioavailability turned out to be 52.2 ± 16.3%. Also, a half-maximal effect in data set [2] (EC50) was put at 0.044 nM.

For the compound `CC1(C)COC[C@H]1n1c(Cc2cc(F)c(-c3cccc(OCc4ccc(C#N)cc4)n3)cc2F)nc2ccc(C(=O)O)cc21` [Example 119, (S)-2-(4-(6-((4-cyanobenzyl)oxy)pyridin-2-yl)-2,5-difluorobenzyl)-1-(4,4-dimethyltetrahydrofuran-3-yl)-benzimidazole-6-carboxylic Acid], in data set [1] (single oral dose 2 mg/kg), the Tmax came to 1.7 ± 0.6 h, the AUC(0-t) came out at 19.4 ± 3.31 µM·h, the Cmax was 1190 ± 137 nM and the bioavailability came out at 47.6 ± 8.1%. Moreover, a half-maximal effect in data set [2] (EC50) was put at 0.031 nM.

In data set [2], `CO[C@@H](C)[C@H](C)n1c(Cc2cc(F)c(-c3cccc(OCc4ccc(Cl)cc4F)n3)cc2F)nc2ccc(C(=O)O)cc21` [Example 564, 2-(4-(6-((4-chloro-2-fluorobenzyl)oxy)pyridin-2-yl)-2,5-difluorobenzyl)-1-((2S,3S)-3-methoxybutan-2-yl)-1H-benzo[d]imidazole-6-carboxylic acid] had an EC50 of 2.29 nM.

The compound `CC1(C)COC[C@H]1n1c(Cc2cc(F)c(-c3cccc(OCc4ccc(-n5ccnn5)cc4F)n3)cc2F)nc2ccc(C(=O)O)cc21` [Example 167, (S)-2-(2,5-difluoro-4-(6-((2-fluoro-4-(1H-1,2,3-triazol-1-yl)benzyl)oxy)pyridin-2-yl)benzyl)-1-(4,4-dimethyltetrahydrofuran-3-yl)-1H-benzo[d]imidazole-6-carboxylic Acid] displayed an EC50 in data set [2] of 0.027 nM.

Compound `CC1(C)COC[C@H]1n1c(Cn2cc(F)c(-c3ccc(F)c(OCc4ccc(C#N)cc4F)n3)cc2=O)nc2c(F)cc(C(=O)O)cc21` [Example 132, (S)-2-((6-((4-cyano-2-fluorobenzyl)oxy)-5,5′-difluoro-2′-oxo-[2,4′-bipyridin]-1′(2′H)-yl)methyl)-1-(4,4-dimethyltetrahydrofuran-3-yl)-4-fluoro-1H-benzo[d]imidazole-6-carboxylic Acid] yielded an EC50 in data set [2] of 0.043 nM.

`CC1(C)COC[C@H]1n1c(Cc2c(F)cc(-c3cccc(OCc4ccc(C#N)cc4F)n3)c(F)c2F)nc2c(F)cc(C(=O)O)cc21` [Example 124] returned an EC50 in data set [2] of 0.027 nM.

Turning to `CC1(C)COC[C@H]1n1c(Cc2c(F)cc(-c3cccc(OCc4ccc(C#N)cc4)n3)cc2F)nc2ccc(C(=O)O)cc21` [Example 362, (S)-2-(4-(6-((4-cyanobenzyl)oxy)pyridin-2-yl)-2,6-difluorobenzyl)-1-(4,4-dimethyltetrahydrofuran-3-yl)-1H-benzo[d]imidazole-6-carboxylic acid], the concentration giving a half-maximal response (EC50) in data set [2] was 0.266 nM.

The compound `CC1(C)COC[C@H]1n1c(Cc2c(F)cc(-c3ccc(F)c(OCc4ccc(Cl)cc4F)n3)cc2F)nc2ccc(C(=O)O)cc21` [Example 303, (S)-2-(4-(6-((4-chloro-2-fluorobenzyl)oxy)-5-fluoropyridin-2-yl)-2,6-difluorobenzyl)-1-(4,4-dimethyltetrahydrofuran-3-yl)-1H-benzo[d]imidazole-6-carboxylic acid] came in with a concentration for a half-maximal effect (EC50) in data set [2] of 0.17 nM.

Source of the values: patent publication US12570642B2, “GLP-IR modulating compounds” (Gilead Sciences, Inc., priority 2021, dated 2026).
